pIC50: −log10 of the molar value.

The first experiment deals with ATF4 translation (ISR pathway activation). Description: ATF4 Nano Luciferase reporter integrated stress response (ISR) assay in H4 ATF4-NLuc (clone 17) cells. Format: cell-based, human. The following applies: H4 ATF4-NLuc (clone 17) cells; compounds 30 minutes at 37 degree Celsius, then 50 um sodium arsenite for 6 additional hours; luminescence readout; read-out: IC50. From the text: Cellular stress leads to activation of the integrated stress response pathway through one of four eukaryotic initiation factor 2α kinases and halts global translation, while allowing for the translation of select transcripts like ATF4 (activating transcription factor 4) that are important for the response to cellular stress. During normal conditions, small open reading frames (ORFs) in the 5′ UTR of ATF4 occupy the ribosome and prevent translation of the coding sequence of ATF4. During stress conditions however, the ribosome scans past these upstream ORFs and preferentially begins translation at the coding sequence of ATF4. In this way, the translation, and thus protein level of ATF4 is a readout of ISR pathway activation. Thus, a fusion of the uORFs and the beginning of the coding sequence of ATF to a common cellular reporter like nano-luciferase allows for a sensitive and high-throughput readout of ISR pathway activity.
Compounds as provided herein were tested in the following assay. The ATF4 Nano Luciferase reporter was constructed by fusing the human full length 5′ untranslated region (5′-UTR) and a small portion of the coding sequence of the ATF4 gene upstream of the Nano Luciferase (NLuc) coding sequence lacking it's start codon. Specifically, nucleotides +1 through +364 (relative to the transcriptional start site) of ATF4 transcript variant 2 (NCBI NM_182810.2) flanked 5′ by EcoRI and 3′ by BamHI restriction enzyme sites were synthesized and cloned into the EcoRI/BamHI cloning sites of pLVX-EF1a-IRES-Puro lentivirus vector (Clontech). […]. H4 cells were selected with […] Puromycin, and clonal cell lines generated by limiting dilution. We utilized this cell line to generate an integrated stress response (ISR) assay to evaluate the activity of ISR pathway inhibitors via luminescence readout. The H4 ATF4-NLuc (clone 17) cell line is plated at a density of […] in 96-well or 384-well respectively in DMEM+10% fetal bovine serum. 24-hours later test compounds diluted in dimethyl sulfoxide (DMSO) are added for 30 minutes at 37 degree Celsius, followed by ISR pathway activation with 50 um sodium arsenite aqueous solution for 6 additional hours. Nano Glo luciferase reagent (N1150, Promega) is added according to manufacturer instructions and the luminescence signal (corresponding to the level of ATF4 translation and thus ISR pathway activation) is read with a standard plate reader with luminescence detection capabilities.
In the table below, activity of the tested compounds is provided in Table 3 as follows: +++=IC50<1 μM; ++=IC50 1-10 μM; +=IC50>10 μM.
Background: In a reporter assay the amount or activity of a reporter protein is the signal.
On to `O=C(COc1ccc(Cl)cc1)NC12CC(NC(=O)COC3CC(C(F)(F)F)C3)(C1)C2` (single isomer, unassigned) [3 (second eluting isomer), 2-(4-chlorophenoxy)-N-(3-(2-(3-(trifluoromethyl)cyclobutoxy)acetamido)bicyclo[1.1.1]pentan-1-yl)acetamide], for which the pIC50 is more than 6.00.
Regarding `O=C(COc1ccc(Cl)c(F)c1)NC12CC(NC(=O)COC3CC(C(F)(F)F)C3)(C1)C2` (single isomer, unassigned) [12 (second eluting isomer), 2-(4-chloro-3-fluorophenoxy)-N-(3-(2-(3-(trifluoromethyl)cyclobutoxy)acetamido)bicyclo[1.1.1]pentan-1-yl)acetamide], the negative-log IC50 (pIC50) is more than 6.00.
With `O=C(COc1ccc(Cl)c(F)c1)NC1CC(OCCOC2CC(OC(F)(F)F)C2)C1` (single isomer, unassigned) [42 (isomer 2), 2-(4-chloro-3-fluoro-phenoxy)-N-[3-[2-[3-cis-(trifluoromethoxy)cyclobutoxy]ethoxy]-trans-cyclobutyl]acetamide], the negative logarithm of the IC50 (pIC50) is more than 6.00.

Staying with this experiment, now noted: Homo sapiens, 0.5 h.
Compound `O=C(COc1ccc(Cl)cc1)NC12CC(NC(=O)COC3CCC3)(C1)C2` [Example 1, 2-(4-chlorophenoxy)-N-(3-(2-cyclobutoxyacetamido)bicyclo[1.1.1]pentan-1-yl)acetamide] gave a pIC50 of more than 6.00.
For the compound `O=C(COc1cccc(Cl)c1F)NC12CC(NC(=O)COC3CCC3)(C1)C2` [Example 13, 2-(3-chloro-2-fluoro-phenoxy)-N-[3-[[2-(cyclobutoxy)acetyl]amino]-1-bicyclo[1.1.1]pentanyl]acetamide], the pIC50 was 5.00 to 6.00.

Staying with this experiment, now noted: Homo sapiens, 0.5 h; H4 ATF4-NLuc (clone 17) cells; compounds 30 minutes at 37 degree Celsius, then 50 um sodium arsenite for 6 additional hours; luminescence readout; read-out: IC50.
Take `O=C(COc1ccc(Cl)cc1)NC12CC(NC(=O)COC3CC(C(F)(F)F)C3)(C1)C2` (single isomer, unassigned) [3 (first eluting isomer), 2-(4-chlorophenoxy)-N-(3-(2-(3-(trifluoromethyl)cyclobutoxy)acetamido)bicyclo[1.1.1]pentan-1-yl)acetamide]: the pIC50 was more than 6.00.
With `O=C(COc1ccc(Cl)c(F)c1)NC12CC(NC(=O)COC3CC(C(F)(F)F)C3)(C1)C2` (single isomer, unassigned) [12 (first eluting isomer), 2-(4-chloro-3-fluorophenoxy)-N-(3-(2-(3-(trifluoromethyl)cyclobutoxy)acetamido)bicyclo[1.1.1]pentan-1-yl)acetamide], the pIC50 is more than 6.00.
Still for that read-out and setting: to `O=C(COc1ccc(Cl)c(F)c1)NC1CC(OCCOC2CC(OC(F)(F)F)C2)C1` (single isomer, unassigned) [42 (isomer 1), 2-(4-chloro-3-fluoro-phenoxy)-N-[3-[2-[3-cis-(trifluoromethoxy)cyclobutoxy]ethoxy]-cis-cyclobutyl]acetamide] belongs more than 6.00.
As to `O=C(COC1CC(OC(F)(F)F)C1)NC12CC(NC(=O)[C@H]3CCc4cc(C(F)(F)F)ccc4O3)(C1)C2` (single isomer, unassigned) [Example 72 (first eluting isomer), N-(3-(2-(3-cis-(trifluoromethoxy)cyclobutoxy)acetamido)bicyclo[1.1.1]pentan-1-yl)-6-(trifluoromethyl)chroman-2-carboxamide], the pIC50 is more than 6.00.
Consider `O=C(COC1CC(OC(F)(F)F)C1)NC12CC(NC(=O)[C@@H]3CCc4cc(C(F)(F)F)ccc4O3)(C1)C2` (single isomer, unassigned) [Example 72 (second eluting isomer), N-(3-(2-(3-cis-(trifluoromethoxy)cyclobutoxy)acetamido)bicyclo[1.1.1]pentan-1-yl)-6-(trifluoromethyl)chroman-2-carboxamide], for which the pIC50 was more than 6.00.
As for `O=C(COc1ccc(Cl)c(F)c1)NC1CCN(c2ccnc(C3CC(OC(F)(F)F)C3)n2)CC1` [58 (cis isomer), 2-(4-chloro-3-fluorophenoxy)-N-(1-(2-(3-cis-(trifluoromethoxy)cyclobutyl)pyrimidin-4-yl)piperidin-4-yl)acetamide], the pIC50 was more than 6.00.
Take `O=C(COc1ccc(Cl)cc1)NC12CC(NC(=O)COC3CC(F)(F)C3)(C1)C2` [Example 2, 2-(4-chlorophenoxy)-N-(3-(2-(3,3-difluorocyclobutoxy)acetamido)bicyclo[1.1.1]pentan-1-yl)acetamide]: the pIC50 was more than 6.00.
As to `O=C(COc1ccc(Cl)cc1)NC12CC(NC(=O)COC3CC4(CCC4)C3)(C1)C2` [Example 4, 2-(4-chlorophenoxy)-N-(3-(2-(spiro[3.3]heptan-2-yloxy)acetamido)bicyclo[1.1.1]pentan-1-yl)acetamide], the pIC50 is more than 6.00.
For the compound `CC1(C)CC(OCC(=O)NC23CC(NC(=O)COc4ccc(Cl)cc4)(C2)C3)C1` [Example 5, 2-(4-chlorophenoxy)-N-(3-(2-(3,3-dimethylcyclobutoxy)acetamido)bicyclo[1.1.1]pentan-1-yl)acetamide], the pIC50 was more than 6.00.
For the compound `N#CC1CC(OCC(=O)NC23CC(NC(=O)COc4ccc(Cl)cc4)(C2)C3)C1` (centres unmarked) [Example 6, 2-(4-chlorophenoxy)-N-(3-(2-(3-cyanocyclobutoxy)acetamido)bicyclo[1.1.1]pentan-1-yl)acetamide], the negative-log IC50 (pIC50) is more than 6.00.
Take `N#CC1CC(OCC(=O)NC23CC(NC(=O)COc4ccc(Cl)c(F)c4)(C2)C3)C1` (centres unmarked) [Example 7, 2-(4-chloro-3-fluorophenoxy)-N-(3-(2-(3-cyanocyclobutoxy)acetamido)bicyclo[1.1.1]pentan-1-yl)acetamide]: the negative logarithm of the IC50 (pIC50) was more than 6.00.
As for `CC1(OCC(=O)NC23CC(NC(=O)COc4ccc(Cl)cc4)(C2)C3)CC(C#N)C1` (centres unmarked) [Example 8, 2-(4-chlorophenoxy)-N-(3-(2-(3-cyano-1-methylcyclobutoxy)acetamido)bicyclo[1.1.1]pentan-1-yl)acetamide], the negative logarithm of the IC50 (pIC50) was 5.00 to 6.00.
On to `O=C(COc1ccc(Cl)c(F)c1)NC12CC(NC(=O)COC3CC(F)C3)(C1)C2` (centres unmarked) [Example 9], for which the pIC50 is more than 6.00.
With `O=C(COc1ccc(Cl)c(F)c1)NC12CC(NC(=O)COC3CCC3)(C1)C2` [Example 10, 2-(4-chloro-3-fluorophenoxy)-N-(3-(2-cyclobutoxyacetamido)bicyclo[1.1.1]pentan-1-yl)acetamide], the pIC50 is more than 6.00.
In the case of `CC1(C#N)CC(OCC(=O)NC23CC(NC(=O)COc4ccc(Cl)c(F)c4)(C2)C3)C1` (centres unmarked) [Example 11, 2-(4-chloro-3-fluorophenoxy)-N-(3-(2-(3-cyano-3-methylcyclobutoxy)acetamido)bicyclo[1.1.1]pentan-1-yl)acetamide], the pIC50 was more than 6.00.
Consider `N#CC1CC(OCC(=O)N2CCC3(CC2)CC(NC(=O)COc2ccc(Cl)c(F)c2)C3)C1` (centres unmarked) [Example 14, 2-(4-chloro-3-fluoro-phenoxy)-N-[7-[2-(3-cyanocyclobutoxy)acetyl]-7-azaspiro[3.5]nonan-2-yl]acetamide], for which the pIC50 was more than 6.00.
As for `O=C(COc1ccc(Cl)c(F)c1)NC1CC2(CCN(C(=O)COC3CCC3)CC2)C1` [Example 15, 2-(4-chloro-3-fluoro-phenoxy)-N-[7-[2-(cyclobutoxy)acetyl]-7-azaspiro[3.5]nonan-2-yl]acetamide], the pIC50 was more than 6.00.
On the same count and under the same terms, to `O=C(COc1ccc(Cl)c(F)c1)NC1CC2(CCN(C(=O)COC3CC(C(F)(F)F)C3)CC2)C1` (centres unmarked) [Example 16, 2-(4-chloro-3-fluoro-phenoxy)-N-[7-[2-[3-(trifluoromethyl)cyclobutoxy]acetyl]-7-azaspiro[3.5]nonan-2-yl]acetamide] belongs more than 6.00; to `O=C(COc1ccc(Cl)c(F)c1)NC1CC2(C1)CN(C(=O)COC1CC(C(F)(F)F)C1)C2` (centres unmarked) [Example 17, 2-(4-chloro-3-fluoro-phenoxy)-N-[2-[2-[3-(trifluoromethyl)cyclobutoxy]acetyl]-2-azaspiro[3.3]heptan-6-yl]acetamide], more than 6.00; to `O=C(COc1ccc(Cl)c(F)c1)NC1CC2(C1)CN(C(=O)COC1CC(n3nccn3)C1)C2` (centres unmarked) [Example 18, 2-(4-chloro-3-fluoro-phenoxy)-N-[2-[2-[3-(triazol-2-yl)cyclobutoxy]acetyl]-2-azaspiro[3.3]heptan-6-yl]acetamide], more than 6.00.
Consider `O=C(COc1ccc(Cl)c(F)c1)NC1CC2(C1)CN(C(=O)COC1CCC1)C2` [Example 19, 2-(4-chloro-3-fluoro-phenoxy)-N-[2-[2-(cyclobutoxy)acetyl]-2-azaspiro[3.3]heptan-6-yl]acetamide], for which the pIC50 is more than 6.00.

Broadly, the pIC50 is −log10 of the IC50, conventionally taken in molar units.

The values are drawn from US20210130308A1, “MODULATORS OF EUKARYOTIC INITIATION FACTOR 2” (Denali Therapeutics Inc., priority 2018, published 2021).
